Assay results published in patent publication US10676477B2, “Factor XIa macrocycle inhibitors bearing a non-aromatic P2' group” (BRISTOL-MYERS SQUIBB COMPANY, priority 2015, dated 2020).
pKi: −log10 of the molar value. Counter-ions that a name gives are not always drawn.

Tests used:
human Factor XIa = target: T1, human Factor XIa (Homo sapiens, UniProt P03951); test: Factor XIa enzyme inhibition assay (chromogenic substrate S-2366), Ki; assay type: biochemical; conditions: purified human Factor XIa, substrate S-2366, pH 7.4
T1 construct: purchased Haematologic Technologies
T1 sequence (P03951 388-625 limits assumed): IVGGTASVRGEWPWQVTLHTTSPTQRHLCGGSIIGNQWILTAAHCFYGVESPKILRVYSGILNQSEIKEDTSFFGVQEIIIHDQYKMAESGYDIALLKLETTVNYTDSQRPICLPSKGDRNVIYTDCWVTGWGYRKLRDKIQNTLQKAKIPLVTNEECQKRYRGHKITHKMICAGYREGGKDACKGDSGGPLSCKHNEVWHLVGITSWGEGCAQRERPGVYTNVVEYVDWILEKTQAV
T1 sequence (P03951 19-387 partner limits assumed): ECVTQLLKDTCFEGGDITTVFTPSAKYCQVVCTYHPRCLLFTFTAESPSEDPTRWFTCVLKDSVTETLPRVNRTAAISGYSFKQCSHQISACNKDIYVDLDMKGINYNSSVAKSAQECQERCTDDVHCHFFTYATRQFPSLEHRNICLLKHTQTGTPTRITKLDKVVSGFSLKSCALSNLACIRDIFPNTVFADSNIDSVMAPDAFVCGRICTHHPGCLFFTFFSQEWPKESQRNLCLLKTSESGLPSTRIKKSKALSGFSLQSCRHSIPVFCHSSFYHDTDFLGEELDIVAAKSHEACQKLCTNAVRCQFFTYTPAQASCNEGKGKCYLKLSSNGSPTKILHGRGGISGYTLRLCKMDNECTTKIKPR
Experimental: (§1) The effectiveness of compounds of the present invention as inhibitors of the coagulation Factors XIa, VIIa, IXa, Xa, XIIa, plasma kallikrein chymotrypsin, trypsin, or thrombin, can be determined using a relevant purified serine protease, respectively, and an appropriate synthetic substrate. The rate of hydrolysis of the chromogenic or fluorogenic substrate by the relevant serine protease was measured both in the absence and presence of compounds of the present invention. […] A decrease in the rate of absorbance or fluorescence change in the presence of inhibitor is indicative of enzyme inhibition. Such methods are known to one skilled in the art. The results of this assay are expressed as the inhibitory constant, Ki.
Factor XIa determinations were made in 50 mM HEPES buffer at pH 7.4 containing 145 mM NaCl, 5 mM KCl, and 0.1% PEG 8000 (polyethylene glycol; JT Baker or Fisher Scientific). Determinations were made using purified human Factor XIa at a final concentration of 25-200 pM (Haematologic Technologies) and the synthetic substrate S-2366 (pyroGlu-Pro-Arg-pNA; CHROMOGENIX® or AnaSpec) at a concentration of 0.0002-0.001 M.
(§2) The Michaelis constant, Km, for substrate hydrolysis by each protease, was determined at 25° C. or 37° C. in the absence of inhibitor. Values of Ki were determined by allowing the protease to react with the substrate in the presence of the inhibitor. Reactions were allowed to go for periods of 20-180 minutes (depending on the protease) and the velocities (rate of absorbance or fluorescence change versus time) were measured. The following relationships were used to calculate Ki values: (Vmax*S)/(Km+S) (vo−vs)/vs=I/(Ki*(1+S/Km)) for a competitive inhibitor with one binding site; or vs/vo=A+((B−A)/(1+(IC50/(I)^n)); and Ki=IC50/(1+S/Km) for a competitive inhibitor where: […]

human plasma kallikrein = target: T2, human plasma kallikrein (Homo sapiens, UniProt P03952); test: Plasma kallikrein enzyme inhibition assay (chromogenic substrate S-2302), Ki; assay type: biochemical; conditions: purified human plasma kallikrein, substrate S-2302, pH 7.5
T2 construct: purchased Enzyme Research Laboratories
T2 sequence (P03952 391-638 limits assumed): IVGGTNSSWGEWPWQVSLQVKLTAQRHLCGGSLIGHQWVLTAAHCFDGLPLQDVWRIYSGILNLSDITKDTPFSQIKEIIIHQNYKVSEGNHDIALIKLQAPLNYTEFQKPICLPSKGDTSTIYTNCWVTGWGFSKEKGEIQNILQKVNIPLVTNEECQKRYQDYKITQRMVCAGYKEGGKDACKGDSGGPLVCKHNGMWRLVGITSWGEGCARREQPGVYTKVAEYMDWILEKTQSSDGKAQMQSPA
T2 sequence (P03952 20-390 partner limits assumed): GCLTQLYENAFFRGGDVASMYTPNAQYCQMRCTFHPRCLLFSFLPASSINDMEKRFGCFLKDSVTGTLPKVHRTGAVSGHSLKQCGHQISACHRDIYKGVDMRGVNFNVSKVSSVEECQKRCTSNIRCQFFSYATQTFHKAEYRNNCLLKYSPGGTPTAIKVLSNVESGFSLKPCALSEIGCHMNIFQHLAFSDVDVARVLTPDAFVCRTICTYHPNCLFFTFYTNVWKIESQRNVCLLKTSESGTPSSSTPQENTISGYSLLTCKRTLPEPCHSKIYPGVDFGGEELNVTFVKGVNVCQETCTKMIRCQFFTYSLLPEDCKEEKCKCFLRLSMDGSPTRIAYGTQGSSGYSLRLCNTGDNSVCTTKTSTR
Experimental: as §1
Plasma kallikrein determinations were made in 0.1 M sodium phosphate buffer at a pH of 7.5 containing 0.1-0.2 M sodium chloride and 0.5% PEG 8000. Determinations were made using purified human plasma kallikrein (Enzyme Research Laboratories) at a final assay concentration of 200 pM and the synthetic substrate S-2302 (H-(D)-Pro-Phe-Arg-pNA; CHROMOGENIX®) at a concentration of 0.00008-0.0004 M.
as §2

Row | SMILES | pKi (human Factor XIa) | pKi (human plasma kallikrein)
1 | O=C1NCCCCC[C@H](n2cnc(-c3cc(Cl)ccc3-n3cc(Cl)nn3)cc2=O)c2cccc(c2)N2CCN(C3COC3)C[C@H]12 [Example 16, (7R,15S)-15-{4-[5-chloro-2-(4-chloro-1H-1,2,3-triazol-1-yl)phenyl]-6-oxo-1,6-dihydropyrimidin-1-yl}-5-(oxetan-3-yl)-2,5,9-triazatricyclo[14.3.1.0^2,7]icosa-1(20),16,18-trien-8-one trifluoromethylacetate] | 7.89 | 6.28
2 | CCOC(=O)c1cnc(N2CCN3c4cccc(c4)[C@@H](n4cnc(-c5cc(Cl)ccc5-n5cc(Cl)nn5)cc4=O)CCCCCNC(=O)[C@H]3C2)o1 [Example 17, ethyl 2-[(7R,15S)-15-{4-[5-chloro-2-(4-chloro-1H-1,2,3-triazol-1-yl)phenyl]-6-oxo-1,6-dihydropyrimidin-1-yl}-8-oxo-2,5,9-triazatricyclo[14.3.1.0^2,7]icosa-1(20),16,18-trien-5-yl]-1,3-oxazole-5-carboxylate trifluoromethylacetate] | 7.80 | 5.91
3 | Cc1c(C(=O)N[C@H]2CCCCCNC(=O)[C@H]3CN(C(=O)OC(C)(C)C)CCN3c3cccc2c3)cnn1-c1cccc(Cl)c1F [Example 18, tert-butyl (7R,15S)-15-[1-(3-chloro-2-fluorophenyl)-5-methyl-1H-pyrazole-4-amido]-8-oxo-2,5,9-triazatricyclo[14.3.1.0^2,7]icosa-1(20),16,18-triene-5-carboxylate, trifluoromethylacetate] | 5.48 | 5.42
4 | CC(C)(C)OC(=O)N1CCN2c3cccc(c3)[C@@H](n3cnc(-c4c(-n5cc(Cl)nn5)ccc(Cl)c4F)cc3=O)CCCCCNC(=O)[C@H]2C1 [Example 19, tert-butyl (7R,15S)-15-{4-[3-chloro-6-(4-chloro-1H-1,2,3-triazol-1-yl)-2-fluorophenyl]-6-oxo-1,6-dihydropyrimidin-1-yl}-8-oxo-2,5,9-triazatricyclo[14.3.1.0^2,7]icosa-(20),16,18-triene-5-carboxylate trifluoromethylacetate] | 8.30 | 6.46
5 | Cc1c(C(=O)N[C@H]2CCCCCNC(=O)[C@H]3CNCCN3c3cccc2c3)cnn1-c1cccc(Cl)c1F [Example 20, 1-(3-chloro-2-fluorophenyl)-5-methyl-N-[(7R,15S)-8-oxo-2,5,9-triazatricyclo[14.3.1.0^2,7]icosa-1(20),16,18-trien-15-yl]-1H-pyrazole-4-carboxamide hydrochloride] | 5.88 | 5.59
6 | COC(=O)N1CCN2c3cccc(c3)[C@@H](NC(=O)c3cnn(-c4cccc(Cl)c4F)c3C)CCCCCNC(=O)[C@H]2C1 [Example 21, methyl (7R,15S)-15-[1-(3-chloro-2-fluorophenyl)-5-methyl-1H-pyrazole-4-amido]-8-oxo-2,5,9-triazatricyclo[14.3.1.0^2,7]icosa-1(20),16,18-triene-5-carboxylate, trifluoromethyl acetate] | 5.98 | 5.04
7 | COC(=O)N1CCN2c3cccc(c3)[C@@H](N3CCC(c4cc(Cl)ccc4-n4cc(Cl)nn4)=CC3=O)CCCCCNC(=O)[C@H]2C1 [Example 22, methyl (7R,15S)-15-{4-[5-chloro-2-(4-chloro-1H-1,2,3-triazol-1-yl)phenyl]-6-oxo-1,2,3,6-tetrahydropyridin-1-yl}-8-oxo-2,5,9-triazatricyclo[14.3.1.0^2,7]icosa-1(20),16,18-triene-5-carboxylate trifluoromethyl acetate] | 8.30 | 6.72
8 | COC(=O)NC[C@H]1Nc2cccc(c2)[C@@H](n2cnc(-c3cc(Cl)ccc3-n3cc(Cl)nn3)cc2=O)CCCCCNC1=O [Example 23, methyl N-{[(3R,11S)-11-{4-[5-chloro-2-(4-chloro-1H-1,2,3-triazol-1-yl)phenyl]-6-oxo-1,6-dihydropyrimidin-1-yl}-4-oxo-2,5-diazabicyclo[10.3.1]hexadeca-1(16),12,14-trien-3-yl]methyl}carbamate trifluoromethyl acetate] | 7.57 | 5.57
9 | O=C(NC[C@H]1Nc2cccc(c2)[C@@H](n2cnc(-c3cc(Cl)ccc3-n3cc(Cl)nn3)cc2=O)CCCCCNC1=O)c1cccnc1 [Example 24, N-{[(3R,11S)-11-{4-[5-chloro-2-(4-chloro-1H-1,2,3-triazol-1-yl)phenyl]-6-oxo-1,6-dihydropyrimidin-1-yl}-4-oxo-2,5-diazabicyclo[10.3.1]hexadeca-1(16),12,14-trien-3-yl]methyl}pyridine-3-carboxamide trifluoromethylacetate] | 7.21 | 5.28
10 | O=C1CN2c3cccc(c3)[C@@H](n3cnc(-c4cc(Cl)ccc4-n4cc(Cl)nn4)cc3=O)CCCCCNC(=O)C2CN1 (stereo partly drawn) [Example 25, (15S)-15-{4-[5-chloro-2-(4-chloro-1H-1,2,3-triazol-1-yl)phenyl]-6-oxo-1,6-dihydropyrimidin-1-yl}-2,5,9-triazatricyclo[14.3.1.0^2,7]icosa-1(20),16,18-triene-4,8-dione] | 7.29 | 5.17
11 | CC(C)(C)OC(=O)NCC[C@H]1Nc2cccc(c2)[C@@H](n2cnc(-c3cc(Cl)ccc3-n3cc(Cl)nn3)cc2=O)CCCCCNC1=O [Example 26, tert-butyl N-{2-[(3R,11S)-11-{4-[5-chloro-2-(4-chloro-1H-1,2,3-triazol-1-yl)phenyl]-6-oxo-1,6-dihydropyrimidin-1-yl}-4-oxo-2,5-diazabicyclo[10.3.1]hexadeca-1(16),12,14-trien-3-yl]ethyl}carbamate trifluoromethylacetate] | 7.62 | 6.37
12 | NCC[C@H]1Nc2cccc(c2)[C@@H](n2cnc(-c3cc(Cl)ccc3-n3cc(Cl)nn3)cc2=O)CCCCCNC1=O [Example 27, (3R,11S)-3-(2-aminoethyl)-11-{4-[5-chloro-2-(4-chloro-1H-1,2,3-triazol-1-yl)phenyl]-6-oxo-1,6-dihydropyrimidin-1-yl}-2,5-diazabicyclo[10.3.1]hexadeca-1(16),12,14-trien-4-one hydrochloride] | 6.06 | 4.85
13 | COC(=O)NCC[C@H]1Nc2cccc(c2)[C@@H](n2cnc(-c3cc(Cl)ccc3-n3cc(Cl)nn3)cc2=O)CCCCCNC1=O [Example 28, methyl N-{2-[(3R,11S)-11-{4-[5-chloro-2-(4-chloro-1H-1,2,3-triazol-1-yl)phenyl]-6-oxo-1,6-dihydropyrimidin-1-yl}-4-oxo-2,5-diazabicyclo[10.3.1]hexadeca-1(16),12,14-trien-3-yl]ethyl}carbamate trifluoromethyl acetate] | 8.30 | 7.08
14 | O=C(NCC[C@H]1Nc2cccc(c2)[C@@H](n2cnc(-c3cc(Cl)ccc3-n3cc(Cl)nn3)cc2=O)CCCCCNC1=O)c1ccn(C(F)F)n1 [Example 29, N-{2-[(3R,11S)-11-{4-[5-chloro-2-(4-chloro-1H-1,2,3-triazol-1-yl)phenyl]-6-oxo-1,6-dihydropyrimidin-1-yl}-4-oxo-2,5-diazabicyclo[10.3.1]hexadeca-1(16),12,14-trien-3-yl]ethyl}-1-(difluoromethyl)-1H-pyrazole-3-carboxamide trifluoromethyl acetate] | 8.30 | 7.31
15 | COC(=O)NCC[C@@H]1Nc2cccc(c2)[C@@H](n2cnc(-c3cc(Cl)ccc3-n3cc(Cl)nn3)cc2=O)CCCCCNC1=O [Example 30, methyl N-{2-[(3S,11S)-11-{4-[5-chloro-2-(4-chloro-1H-1,2,3-triazol-1-yl)phenyl]-6-oxo-1,6-dihydropyrimidin-1-yl}-4-oxo-2,5-diazabicyclo[10.3.1]hexadeca-1(16),12,14-trien-3-yl]ethyl}carbamate trifluoromethyl acetate] | 6.29 | 5.25
16 | COC(=O)NCC[C@@H]1Nc2cccc(c2)[C@@H](NC(=O)c2cnn(-c3cccc(Cl)c3F)c2Cl)CCCCCNC1=O [Example 31, methyl N-{2-[(3S,11S)-11-[5-chloro-1-(3-chloro-2-fluorophenyl)-1H-pyrazole-4-amido]-4-oxo-2,5-diazabicyclo[10.3.1]hexadeca-1(16),12,14-trien-3-yl]ethyl}carbamate, trifluoromethylacetate] | 5.74 | 5.02
17 | O=C1NCCCC[C@H](n2cnc(-c3c(-n4cc(Cl)nn4)ccc(Cl)c3F)cc2=O)c2cc(F)cc(c2)N2C(=O)CC[C@H]12 [Example 32, (6R,13S)-13-{4-[3-chloro-6-(4-chloro-1H-1,2,3-triazol-1-yl)-2-fluorophenyl]-6-oxo-1,6-dihydropyrimidin-1-yl}-16-fluoro-2,8-diazatricyclo[12.3.1.0^2,6]octadeca-1(18),14,16-triene-3,7-dione] | 7.11 | 5.28
